# Experimental data published in US20140349970A1 (ABBVIE INC., priority 2009, published 2014).
# Counter-ions that a name gives are not always drawn. Like-named read-outs stand apart in the source and are kept apart here.
# Molecular target: T1, Syk catalytic domain (aa 356-635 with a C-terminal His-tag) (Homo sapiens, UniProt P43405)
# T1 construct: His-tag (C); made in house
# Experiment: In vitro Syk kinase activity measured by trFRET, Syk catalytic domain
# Assay type: biochemical
# How it was run: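 Kinase reaction: 0.14 nM His-tagged catalytic domain, 0.2 μM biotin-TYR1 peptide, 0.001 mM ATP in 50 mM MOPSO pH 6.5 with MgCl2, MnCl2, DTT, BSA, vanadate, ~60 min at rt, then EDTA quench. Phosphoproduct detected by trFRET (Eu anti-pTyr antibody/streptavidin-APC, 665 nm emission); IC50 from signal in linear range.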
# [1] = Syk catalytic domain (aa 356-635), trFRET, 0.001 mM ATP
SMILES,IC50 [1],IC50
"CS(=O)(=O)c1cccc(-c2cc3c(ncc4cnc([C@@H]5CC[C@H](N)C5)n43)[nH]2)c1 (relative stereo) [T.1.1.5, (cis)-3-(7-(3-(Methylsulfonyl)phenyl)-6H-imidazo[1,5-a]pyrrolo[2,3-e]pyrazin-1-yl)cyclopentanamine]",0.1 to 1 µM,–
CN(C)C(=O)c1ccc2c(-c3cc4c(ncc5cnn(C)c54)[nH]3)cn(C)c2c1 [J.1.4.1],< 0.1 µM,–
Cc1nc(-c2ccc(S(=O)(=O)N3CCN(C)CC3)cc2)c2cnc3[nH]ccc3n12 [AC.1.12],–,1 to 10 µM
Cn1ncc2cnc3[nH]c(-c4ccc(OCCN5CCOCC5)cc4)cc3c21 [N.2.4],< 0.1 µM,–
CC(C)(O)c1ccc(-c2nc(C3CC[C@H](NS(=O)(=O)C4CC4)C3)n3c2cnc2[nH]ccc23)cc1 (stereo partly drawn) [N.1.51],< 0.1 µM,–
CCCNC(=O)c1ccc(-c2ncn3c2cnc2[nH]ccc23)cc1 [AC.4.7],–,0.1 to 1 µM
COc1ccc(-c2cc3c(ncc4cnc(C)n43)[nH]2)cc1 [M.1.25],< 0.1 µM,–
COCCC(=O)N1CCCC(c2nc(-c3ccc(S(C)(=O)=O)cc3)c3cnc4[nH]ccc4n23)C1 (stereo not drawn) [N.1.63],1 to 10 µM,–
CCc1c[nH]c2ncc3c(-c4cccnc4)nn(C)c3c12 [N.1.75],1 to 10 µM,–
CS(=O)(=O)c1ccc(-c2nc(COCCN)n3c2cnc2[nH]ccc23)cc1 [T.4.1.1],–,0.1 to 1 µM
CC(=O)c1ccc(-c2nc(C)n3c2cnc2[nH]ccc23)s1 [AC.1.32],–,0.1 to 1 µM
COc1ccc(-c2cc3c(ncc4cnn(C)c43)[nH]2)cc1 [N.1.14],< 0.1 µM,–
CNc1ncc2cnc3[nH]c(-c4ccc(C)cc4)cc3n12 [M.1.15],0.1 to 1 µM,–
"Cc1nc(-c2ccc(C(C)(C)O)cc2)c2cnc3[nH]ccc3n12 [N.1.50, 2-(4-(1-methyl-6H-imidazo[1,5-a]pyrrolo[2,3-e]pyrazin-3-yl)phenyl)propan-2-ol]",< 0.1 µM,–
COc1ccc(-c2nc(CO)n3c2cnc2[nH]ccc23)cc1 [N.1.113],0.1 to 1 µM,–
COc1ccc2c(c1)c(-c1cc3c(ncc4cnn(C)c43)[nH]1)cn2CC(=O)N(C)C [N.1.25],< 0.1 µM,–
CC(C)(O)c1ccc(-c2nc(CCCN)n3c2cnc2[nH]ccc23)cc1 [AC.5.5],–,0.1 to 1 µM
CCc1c[nH]c2ncc3c(-c4ccc(CO)cc4)nn(C)c3c12 [N.1.71],0.1 to 1 µM,–

SMILES,IC50 [1],IC50
COc1ccc2c(c1)c(-c1cc3c(ncc4cnn(C)c43)[nH]1)cn2CC(=O)N1CCOCC1 [N.2.9],< 0.1 µM,–
Cn1ncc2cnc3[nH]c(-c4cccc(S(=O)(=O)NCCO)c4)cc3c21 [N.1.34],< 0.1 µM,–
COc1ccc2c(c1)c(-c1cc3c(ncc4cnn(C)c43)[nH]1)cn2C(C)C [N.1.81],0.1 to 1 µM,–
Cc1c(-c2ccc(C(C)(C)O)cc2)[nH]c2ncc3nnc(C)n3c12 [S.1.5],–,1 to 10 µM
COc1cc(-c2ncn3c2cnc2[nH]ccc23)ccn1 [AC.4.3],–,0.1 to 1 µM
CC(C)(O)c1ccc(-c2nc(-c3cccnc3C#N)n3c2cnc2[nH]ccc23)cc1 [D.3.1],< 0.1 µM,–
"Cc1nc(-c2ccc(C3(O)CCNCC3)cc2)c2cnc3[nH]ccc3n12 [P.3.1.5, 4-(4-(1-Methyl-6H-imidazo[1,5-a]pyrrolo[2,3-e]pyrazin-3-yl)phenyl)piperidin-4-ol hydrochloride]",–,< 0.1 µM
CS(=O)(=O)c1cccc(-c2cc3c(ncc4cnc(CCCNC(=O)C(F)(F)F)n43)[nH]2)c1 [M.1.4],0.1 to 1 µM,–
CC(=O)NC(C)(C)c1ccc(-c2nc(C3CCCCC3)n3c2cnc2[nH]ccc23)cc1 [J.2.1.4],< 0.1 µM,–
COc1ccc(-c2nc(C)n3c2cnc2[nH]ccc23)s1 [AC.1.31],–,< 0.1 µM
CC(C)(O)c1ccc(-c2nc(C3CCOCC3)n3c2cnc2[nH]cc(C#N)c23)cc1 [AE.1.1],–,1 to 10 µM
COc1ccc(-c2nc([C@@H]3CC[C@H](N)C3)n3c2cnc2[nH]ccc23)cc1 [P.3.1.2],–,0.1 to 1 µM
CCc1c[nH]c2ncc3c(-c4cc(OC)c(OC)c(OC)c4)nn(C)c3c12 [N.1.77],1 to 10 µM,–
CCc1c(-c2cccc(S(C)(=O)=O)c2)[nH]c2ncc3cnn(C)c3c12 [N.1.21],0.1 to 1 µM,–
COc1ccc(-c2nc(C)n3c2cnc2[nH]ccc23)c(F)c1 [AC.1.18],–,1 to 10 µM
"CCc1c(-c2ccc(C(C)(C)O)cc2)[nH]c2ncc3nccn3c12 [Example 4, 2-(4-(1-Ethyl-3H-imidazo[1,2-a]pyrrolo[2,3-e]pyrazin-2-yl)phenyl)propan-2-ol]",0.1 to 1 µM,–
Cn1cc(-c2cc3c(ncc4cnn(C)c43)[nH]2)c2cnccc21 [N.1.100],0.1 to 1 µM,–
COc1ccc2c(c1)c(-c1cc3c(ncc4cnc(CC(F)(F)F)n43)[nH]1)cn2C [M.1.1],< 0.1 µM,–

# Now from value to compound:
IC50 [1],IC50,SMILES
0.1 to 1 µM,–,Cn1cc(-c2cc3c(ncc4cnn(C)c43)[nH]2)c2nccnc21 [N.1.117]
0.1 to 1 µM,–,Cn1ccc2cc(-c3cc4c(ncc5cnn(C)c54)[nH]3)ccc21 [N.1.46]
< 0.1 µM,–,Cn1cc(-c2cc3c(ncc4cnn(C)c43)[nH]2)c2cc(C(C)(C)O)ccc21 [N.1.101]
–,0.1 to 1 µM,COc1ccc(-c2nc(C)n3c2cnc2[nH]ccc23)cn1 [AC.1.21]
–,1 to 10 µM,COc1cccc(-c2nc(C3CCCCC3)n3c2cnc2[nH]ccc23)c1 [AC.3.1]
< 0.1 µM,–,Cn1cc(-c2cc3c(ncc4cnn(C)c43)[nH]2)c2cc(C(=O)NCCN3CCOCC3)ccc21 [J.1.8.1]
0.1 to 1 µM,–,"CN(C)CCNC(=O)Cc1cccc(-c2cc3c(ncc4cnn(C)c43)[nH]2)c1 [Example 1, N-(2-(dimethylamino)ethyl)-2-(3-(1-methyl-1,6-dihydropyrazolo[3,4-d]pyrrolo[2,3-b]pyridin-7-yl)phenyl)acetamide]"
< 0.1 µM,–,Cn1cc(-c2cc3c(ncc4cnn(C)c43)[nH]2)c2ccc(C(=O)NCC(C)(C)CO)cc21 [J.1.4.2]
0.1 to 1 µM,–,"CC(C)(O)c1ccc(-c2nc(-c3ccccc3CN)n3c2cnc2[nH]ccc23)cc1 [Example 7, 2-(4-(1-(2-(Aminomethyl)phenyl)-6H-imidazo[1,5-a]pyrrolo[2,3-e]pyrazin-3-yl)phenyl)propan-2-ol]"
< 0.1 µM,–,COc1ccc2c(c1)c(-c1cc3c(ncc4cnn(C)c43)[nH]1)cn2CCN1CCOCC1 [N.2.11]
1 to 10 µM,–,CN(C)CC1CCN(c2nc(-c3ccc(S(C)(=O)=O)cc3)c3cnc4[nH]ccc4n23)C1 (stereo not drawn) [N.1.64]
0.1 to 1 µM,–,CC(=O)N[C@H]1CC[C@@H](c2ncc3cnc4[nH]c(-c5cccc(S(C)(=O)=O)c5)cc4n23)C1 [J.2.1.2]
1 to 10 µM,–,COc1ccc(-c2nc(C3CCN(C)CC3)n3c2cnc2[nH]ccc23)cc1 [N.1.86]
–,0.1 to 1 µM,Cc1nc(-c2ccc(CNS(=O)(=O)C3CC3)cc2)c2cnc3[nH]ccc3n12 [AC.1.38]
1 to 10 µM,–,CCc1c(-c2cccc(S(=O)(=O)N(CC)CC)c2)[nH]c2ncc3cnn(C)c3c12 [N.1.40]
0.1 to 1 µM,–,CCc1c[nH]c2ncc3c(-c4cnn(C)c4)nn(C)c3c12 [N.1.76]
0.1 to 1 µM,–,CC(C)(O)c1ccc(-c2nc([C@@H]3CCCN(C(=O)C4(C#N)CC4)C3)n3c2cnc2[nH]ccc23)cc1 [D.2.2]
0.1 to 1 µM,–,C=C(C)c1ccc(-c2nc(C3CC[C@H](NS(=O)(=O)C4CC4)C3)n3c2cnc2[nH]ccc23)cc1 (stereo partly drawn) [N.1.52]
0.1 to 1 µM,–,COCCCNC(=O)Cc1cccc(-c2cc3c(ncc4cnn(C)c43)[nH]2)c1 [N.1.11]
1 to 10 µM,–,CCc1c(-c2cccc(C(=O)NCCN3CCOCC3)c2)[nH]c2ncc3cnn(C)c3c12 [N.1.30]
–,< 0.1 µM,CCc1c(-c2ccc(C(C)(C)O)cc2)[nH]c2ncc3cnnn3c12 [S.1.8]

IC50 [1],IC50,SMILES
1 to 10 µM,–,CCc1c[nH]c2ncc3c(-c4ccc(OC)cc4)nn(C)c3c12 [N.1.74]
< 0.1 µM,–,CNS(=O)(=O)c1cccc(-c2cc3c(ncc4cnn(C)c43)[nH]2)c1 [N.1.33]
–,0.1 to 1 µM,Cn1nc(-c2ccc(S(C)(=O)=O)cc2)c2cnc3[nH]ccc3c21 [AR.1.1]
< 0.1 µM,–,CC(C)(O)c1ccc(-c2ncn3c2cnc2[nH]ccc23)cc1 [N.1.53]
1 to 10 µM,–,CS(=O)(=O)c1ccc(-c2nc(C3CCCN(C(=O)CCO)C3)n3c2cnc2[nH]ccc23)cc1 (stereo not drawn) [N.1.62]
< 0.1 µM,–,CC(C)(O)c1ccc(-c2nc(C3CCCCC3)n3c2cnc2[nH]ccc23)cc1 [N.1.49]
0.1 to 1 µM,–,Cn1ncc2cnc3[nH]c(-c4cccnc4)cc3c21 [N.2.2]
< 0.1 µM,–,Cn1cc(-c2cc3c(ncc4cnn(C)c43)[nH]2)c2cc(C(=O)N3CCC(CO)CC3)ccc21 [J.1.8.3]
0.1 to 1 µM,–,COc1ccc(-c2nc(C)n3c2cnc2[nH]ccc23)cc1C(=O)NCCN(C)C [J.1.7.2]
1 to 10 µM,–,Cc1nnc2cnc3[nH]c(-c4cnn(C)c4)cc3n12 [M.1.12]
–,0.1 to 1 µM,Cc1ccc(-c2nc(C3CCCCC3)n3c2cnc2[nH]ccc23)cc1 [AC.3.32]
> 10 µM,–,CCc1c(-c2cccc3c2ccn3C)[nH]c2ncc3cnn(C)c3c12 [N.1.16]
< 0.1 µM,–,Cn1ncc2cnc3[nH]c(-c4cccc(S(N)(=O)=O)c4)cc3c21 [N.1.13]
< 0.1 µM,–,"COc1ccc2c(c1)c(-c1cc3c(ncc4cnc(CCCNC(C)=O)n43)[nH]1)cn2C [Example 5, N-(3-(7-(5-Methoxy-1-methyl-1H-indol-3-yl)-6H-imidazo[1,5-a]pyrrolo[2,3-e]pyrazin-1-yl)propyl)acetamide]"
1 to 10 µM,–,CN1CCc2cnc3[nH]c(-c4ccc(C(C)(C)O)cc4)cc3c21 [N.1.23]
< 0.1 µM,–,COc1ccc2c(c1)c(-c1cc3c(ncc4cnc(N(C)C)n43)[nH]1)cn2C [M.1.8]
0.1 to 1 µM,–,COc1ccc(-c2cc3c(ncc4c(C)nc(C)n43)[nH]2)cc1 [M.1.22]
–,0.1 to 1 µM,CC1CN(Cc2nc(-c3ccc(C(C)(C)O)cc3)c3cnc4[nH]ccc4n23)CCN1 (stereo not drawn) [P.3.1.13]
–,> 10 µM,COc1ccc(-c2nc(C)n3c2cnc2[nH]ccc23)c(C)c1 [AC.1.17]
1 to 10 µM,–,CCc1c(-c2cn(C)nc2C)[nH]c2ncc3cnn(C)c3c12 [N.1.37]
< 0.1 µM,–,COc1ccc2c(c1)c(-c1cc3c(ncc4cnn(C)c43)[nH]1)cn2CC(=O)N1CCN(C)CC1 [N.2.14]
